Reference: patent US20230085307A1, “PYRIDAZINONE COMPOUND AND HERBICIDE” (NISSAN CHEMICAL CORPORATION, priority 2019, published 2023)

What was measured:
[1] = system: green foxtail; test: Test Example 5: herbicidal effect by foliage application, plastic box (Table 20, symbol G); type: in vivo, green foxtail (Setaria viridis); conditions: foliage application; for effect on green foxtail (G): 3 weeks after application
Method in brief: (§1)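 Post-emergence foliar test in sterilized diluvial soil. Compound applied as water-diluted emulsion at a predetermined rate to 14-day-old plants; evaluation at three weeks.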

[2] = system: false cleavers; test: Test Example 4: herbicidal effect by soil treatment (Table 19, symbol Q); type: in vivo, false cleavers (Galium spurium)
Method in brief: (§2)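 Emulsion of test compound, water-diluted to predetermined amount, sprayed on soil after sowing (seed depth ~1.5 cm, sterilized diluvial soil). Greenhouse, 25–30° C. Effect graded at three weeks post-spray.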

[3] = system: blackgrass; test: Test Example 4: herbicidal effect by soil treatment (Table 19, symbol J); type: in vivo, blackgrass (Alopecurus myosuroides)
Method in brief: as §2

[4] = system: windgrass; test: Test Example 4: herbicidal effect by soil treatment (Table 19, symbol L); type: in vivo, windgrass (Apera spica-venti)
Method in brief: as §2

[5] = system: persian speedwell; test: Test Example 4: herbicidal effect by soil treatment (Table 19, symbol R); type: in vivo, Persian speedwell (Veronica persica)
Method in brief: as §2

[6] = system: velvetleaf; test: Test Example 5: herbicidal effect by foliage application, plastic box (Table 20, symbol M); type: in vivo, velvetleaf (Abutilon theophrasti); conditions: foliage application; for effect on velvetleaf (M): 3 weeks after application
Method in brief: as §1

[7] = system: Chinese sprangletop; test: Test Example 3: herbicidal effect by foliage application, Wagner pot (Table 18, symbol D); type: in vivo, chinese sprangletop (Leptochloa chinensis); conditions: for herbicidal effect on D: Chinese sprangletop: amount of applied herbicide 320 g/ha
Method in brief: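 Plants were sown in alluvial soil held under 0.1–0.5 cm standing water and grown 14 days in a greenhouse at 25–30 °C. An emulsifiable formulation, water-diluted to the set dose, was then sprayed onto the foliage, and effects were scored three weeks later using previously defined criteria.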

[8] = system: Japanese bulrush; test: Test Example 1: herbicidal activity, application before weed generation under submerged conditions (Table 16, symbol B); type: in vivo, Japanese bulrush (Schoenoplectus juncoides)
Method in brief: (§3)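 Emulsion formulation, water-diluted to set dose, was put onto the flooded surface (4 cm depth, alluvial soil) the same day weeds were sown and 2.5-leaf rice transplanted. After 3 weeks at 25-30 °C under glass, each species was rated 0 (≤5% kill) to 5 (≥90% kill).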

[9] = system: oval-leafed pondweed; test: Test Example 1: herbicidal activity, application before weed generation under submerged conditions (Table 16, symbol C); type: in vivo, oval-leafed pondweed (Monochoria vaginalis)
Method in brief: as §3

[10] = system: oval-leafed pondweed; test: Test Example 2: herbicidal activity, application during weed generation under submerged conditions (Table 17, symbol C); type: in vivo, oval-leafed pondweed (Monochoria vaginalis); conditions: application during weed generation, submerged conditions
Method in brief: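 Wagner pot, alluvial soil, 4 cm flood; mixed sowing of all species; greenhouse 25° C.–30° C. Emulsifiable formulation, water-diluted to predetermined dose, applied to paddy water at 1–2 leaf stage. Effect rated at 3 wk using the earlier test's scoring criteria.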

[11] = system: late watergrass; test: Test Example 1: herbicidal activity, application before weed generation under submerged conditions (Table 16, symbol A); type: in vivo, late watergrass (Echinochloa oryzicola)
Method in brief: as §3

[12] = system: chickweed; test: Test Example 5: herbicidal effect by foliage application, plastic box (Table 20, symbol P); type: in vivo, common chickweed (Stellaria media); conditions: foliage application, evaluated three weeks after application
Method in brief: as §1

[13] = 320 g/ha, evaluated three weeks after application
[14] = amount of applied herbicide 320 g/ha
[15] = AAH 320 g/ha, evaluated three weeks after application

Cc1nn(C)c(=O)c(-c2c(-c3ccc(OCCBr)cc3)sc3ccccc23)c1O [1-204]
effect on green foxtail (G) ([1]; 320 g/ha): 4 (Herbicidal rate of 70% or more and less than 90%)
Q: false cleavers, herbicidal effect rating ([2]; AAH 320 g/ha): 0 (Herbicidal rate of 5% or less (almost no effect))
J: blackgrass, herbicidal effect rating ([3]; AAH 320 g/ha): 0 (Herbicidal rate of 5% or less (almost no effect))
L: windgrass, herbicidal effect rating ([4]; AAH 320 g/ha): 0 (Herbicidal rate of 5% or less (almost no effect))
R: persian speedwell, herbicidal effect rating ([5]; AAH 320 g/ha): 4 (Herbicidal rate of 70% or more and less than 90%)
effect on velvetleaf (M) ([6]; 320 g/ha): 5 (Herbicidal rate of 90% or more (almost completely withered))
herbicidal effect on D (Chinese sprangletop), rating 0-5 ([7]; 320 g/ha): 2 (Herbicidal rate of 20% or more and less than 40%)
Herbicidal effect on B: Japanese bulrush (grade 0-5) ([8]; 320 g/ha applied herbicide): 3 (Herbicidal rate of 40% or more and less than 70%)
Herbicidal effect on C: oval-leafed pondweed (grade 0-5) ([9]; 320 g/ha applied herbicide): 3 (Herbicidal rate of 40% or more and less than 70%)
herbicidal effect rating, C: oval-leafed pondweed ([10]; AAH 320 g/ha): 2 (Herbicidal rate of 20% or more and less than 40%)
Herbicidal effect on A: late watergrass (grade 0-5) ([11]; 320 g/ha applied herbicide): 3 (Herbicidal rate of 40% or more and less than 70%)

C=C(C)COc1ccc(-c2sc3ccccc3c2-c2c(O)c(C)nn(C)c2=O)cc1 [1-208]
effect on green foxtail (G) ([1]; 320 g/ha): 5 (Herbicidal rate of 90% or more (almost completely withered))
Q: false cleavers, herbicidal effect rating ([2]; AAH 320 g/ha): 0 (Herbicidal rate of 5% or less (almost no effect))
J: blackgrass, herbicidal effect rating ([3]; AAH 320 g/ha): 0 (Herbicidal rate of 5% or less (almost no effect))
L: windgrass, herbicidal effect rating ([4]; AAH 320 g/ha): 0 (Herbicidal rate of 5% or less (almost no effect))
R: persian speedwell, herbicidal effect rating ([5]; AAH 320 g/ha): 5 (Herbicidal rate of 90% or more (almost completely withered))
effect on velvetleaf (M) ([6]; 320 g/ha): 5 (Herbicidal rate of 90% or more (almost completely withered))
herbicidal effect on D (Chinese sprangletop), rating 0-5 ([7]; 320 g/ha): 5 (Herbicidal rate of 90% or more (almost completely withered))
Herbicidal effect on B: Japanese bulrush (grade 0-5) ([8]; 320 g/ha applied herbicide): 5 (Herbicidal rate of 90% or more (almost completely withered))
Herbicidal effect on C: oval-leafed pondweed (grade 0-5) ([9]; 320 g/ha applied herbicide): 5 (Herbicidal rate of 90% or more (almost completely withered))
herbicidal effect rating, C: oval-leafed pondweed ([10]; AAH 320 g/ha): 3 (Herbicidal rate of 40% or more and less than 70%)
Herbicidal effect on A: late watergrass (grade 0-5) ([11]; 320 g/ha applied herbicide): 5 (Herbicidal rate of 90% or more (almost completely withered))

Cc1nn(C)c(=O)c(-c2c(-c3ccc(OCCC4OCCO4)cc3)sc3ccccc23)c1O [1-223]
effect on green foxtail (G) ([1]; 246 g/ha): 5 (Herbicidal rate of 90% or more (almost completely withered))
Q: false cleavers, herbicidal effect rating ([2]; AAH 246 g/ha): 0 (Herbicidal rate of 5% or less (almost no effect))
J: blackgrass, herbicidal effect rating ([3]; AAH 246 g/ha): 0 (Herbicidal rate of 5% or less (almost no effect))
L: windgrass, herbicidal effect rating ([4]; AAH 246 g/ha): 0 (Herbicidal rate of 5% or less (almost no effect))
R: persian speedwell, herbicidal effect rating ([5]; AAH 246 g/ha): 0 (Herbicidal rate of 5% or less (almost no effect))
effect on velvetleaf (M) ([6]; 246 g/ha): 5 (Herbicidal rate of 90% or more (almost completely withered))
herbicidal effect on D (Chinese sprangletop), rating 0-5 ([7]; 246 g/ha): 5 (Herbicidal rate of 90% or more (almost completely withered))
Herbicidal effect on B: Japanese bulrush (grade 0-5) ([8]; 246 g/ha applied herbicide): 4 (Herbicidal rate of 70% or more and less than 90%)
Herbicidal effect on C: oval-leafed pondweed (grade 0-5) ([9]; 246 g/ha applied herbicide): 4 (Herbicidal rate of 70% or more and less than 90%)
herbicidal effect rating, C: oval-leafed pondweed ([10]; AAH 246 g/ha): 3 (Herbicidal rate of 40% or more and less than 70%)
Herbicidal effect on A: late watergrass (grade 0-5) ([11]; 246 g/ha applied herbicide): 5 (Herbicidal rate of 90% or more (almost completely withered))

CCCOc1ccc(-c2sc3ccc(F)cc3c2-c2c(O)c(C)nn(C)c2=O)cc1 [2-032]
effect on green foxtail (G) ([1]; 320 g/ha): 5 (Herbicidal rate of 90% or more (almost completely withered))
herbicidal effect rating, Q: false cleavers ([2]; 320 g/ha): 0 (Herbicidal rate of 5% or less (almost no effect))
herbicidal effect rating, J: blackgrass ([3]; 320 g/ha): 0 (Herbicidal rate of 5% or less (almost no effect))
herbicidal effect rating, L: windgrass ([4]; 320 g/ha): 0 (Herbicidal rate of 5% or less (almost no effect))
herbicidal effect rating, R: persian speedwell ([5]; 320 g/ha): 5 (Herbicidal rate of 90% or more (almost completely withered))
effect on velvetleaf (M) ([6]; 320 g/ha): 5 (Herbicidal rate of 90% or more (almost completely withered))
herbicidal effect on D (Chinese sprangletop), rating 0-5 ([7]; 320 g/ha): 3 (Herbicidal rate of 40% or more and less than 70%)
Herbicidal effect on B: Japanese bulrush (grade 0-5) ([8]; 320 g/ha applied herbicide): 4 (Herbicidal rate of 70% or more and less than 90%)
Herbicidal effect on C: oval-leafed pondweed (grade 0-5) ([9]; 320 g/ha applied herbicide): 4 (Herbicidal rate of 70% or more and less than 90%)
herbicidal effect rating, C: oval-leafed pondweed ([10]; AAH 320 g/ha): 5 (Herbicidal rate of 90% or more (almost completely withered))
Herbicidal effect on A: late watergrass (grade 0-5) ([11]; 320 g/ha applied herbicide): 4 (Herbicidal rate of 70% or more and less than 90%)

Cc1nn(C)c(=O)c(-c2c(-c3ccc(Br)cc3)sc3ccc(F)cc23)c1O [2-205]
herbicidal effect on G: green foxtail (criteria 0-5) [1, 13]: 5 (Herbicidal rate of 90% or more (almost completely withered))
Q: false cleavers, herbicidal effect rating [2, 14]: 1 (Herbicidal rate of 5% or more and less than 20%)
J: blackgrass, herbicidal effect rating [3, 14]: 0 (Herbicidal rate of 5% or less (almost no effect))
L: windgrass, herbicidal effect rating [4, 14]: 0 (Herbicidal rate of 5% or less (almost no effect))
R: persian speedwell, herbicidal effect rating [5, 14]: 5 (Herbicidal rate of 90% or more (almost completely withered))
herbicidal effect on P: chickweed (criteria 0-5) ([12]; 320 g/ha): 5 (Herbicidal rate of 90% or more (almost completely withered))
herbicidal effect on M: velvetleaf (criteria 0-5) [6, 13]: 5 (Herbicidal rate of 90% or more (almost completely withered))
herbicidal effect on D: Chinese sprangletop [7]: 4 (Herbicidal rate of 70% or more and less than 90%)
Herbicidal effect on B: Japanese bulrush (grade 0-5) ([8]; 320 g/ha applied herbicide): 3 (Herbicidal rate of 40% or more and less than 70%)
Herbicidal effect on C: oval-leafed pondweed (grade 0-5) ([9]; 320 g/ha applied herbicide): 1 (Herbicidal rate of 5% or more and less than 20%)
herbicidal effect rating, C: oval-leafed pondweed ([10]; AAH 320 g/ha): 2 (Herbicidal rate of 20% or more and less than 40%)
Herbicidal effect on A: late watergrass (grade 0-5) ([11]; 320 g/ha applied herbicide): 4 (Herbicidal rate of 70% or more and less than 90%)

Cc1nn(C)c(=O)c(-c2c(-c3ccc(OC(F)F)cc3)sc3ccc(F)cc23)c1OC(=S)Sc1ccccc1 [2-298]
G: green foxtail, herbicidal effect (criteria 0-5) [1, 15]: 5 (Herbicidal rate of 90% or more (almost completely withered))
herbicidal effect on Q: false cleavers [2, 14]: 0 (Herbicidal rate of 5% or less (almost no effect))
herbicidal effect on J: blackgrass [3, 14]: 0 (Herbicidal rate of 5% or less (almost no effect))
herbicidal effect on L: windgrass [4, 14]: 0 (Herbicidal rate of 5% or less (almost no effect))
herbicidal effect on R: persian speedwell [5, 14]: 1 (Herbicidal rate of 5% or more and less than 20%)
P: chickweed, herbicidal effect (criteria 0-5) ([12]; AAH 320 g/ha): 5 (Herbicidal rate of 90% or more (almost completely withered))
M: velvetleaf, herbicidal effect (criteria 0-5) [6, 15]: 5 (Herbicidal rate of 90% or more (almost completely withered))
herbicidal effect on D: Chinese sprangletop [7]: 3 (Herbicidal rate of 40% or more and less than 70%)
Herbicidal effect on B: Japanese bulrush (grade 0-5) ([8]; 320 g/ha applied herbicide): 3 (Herbicidal rate of 40% or more and less than 70%)
Herbicidal effect on C: oval-leafed pondweed (grade 0-5) ([9]; 320 g/ha applied herbicide): 3 (Herbicidal rate of 40% or more and less than 70%)
herbicidal effect rating, C: oval-leafed pondweed ([10]; AAH 320 g/ha): 0 (Herbicidal rate of 5% or less (almost no effect))
Herbicidal effect on A: late watergrass (grade 0-5) ([11]; 320 g/ha applied herbicide): 3 (Herbicidal rate of 40% or more and less than 70%)
